Laboratory results: patent publication US20070105790A1, “Pancreatic cancer treatment using Na+/K+ ATPase inhibitors” (Bionaut Pharmaceuticals, Inc., priority 2004, published 2007)
Values after ≈ are worked out from the molar mass of the structure shown. Where two headings read alike, the source gives them in different places.

Tests used:
HIF-1α = HIF-1α induced by L-mimosone under normoxia in Hep3B cells; format: cell-based
Protocol: Abundance of HIF-1α and β-actin was determined by western blotting.

VEGF = VEGF secretion by tumor cells; format: cell-based; details: FIG. 5
A549 Sentinel Line = test: Sentinel Line beta-galactosidase reporter assay (A549); format: cell-based; details: 40 hrs; for reporter activity, Gemcitabine-induced stress response: A549 sentinel line, FACS, FIG. 7; for cell death / reporter activity: Sentinel Lines; for reporter activity: FIG. 6
Protocol: The expression level of beta-galactosidase gene in sentinel lines was determined by using a fluorescent substrate fluorescein di-B-D-Galactopyranside (FDG, Marker Gene Tech, #M0250) introduced into cells by hypotonic shock. Cleavage by beta-galactosidase results in the production of free fluorescein, which is unable to cross the plasma membrane and is trapped inside the beta-gal positive cells. Briefly, the cells to be analyzed are trypsinized, and resuspended in PBS containing 2 mM FDG (diluted from a 10 mM stock prepared in 8:1:1 mixture of water: ethanol: DMSO). The cells were then shocked for 4 minutes at 37° C. and transferred to FACS tubes containing cold 1×PBS on ice. Samples were kept on ice for 30 minutes and analyzed by FACS in FL1 channel.
Sentinel Line cells with beta-galactosidase reporter gene were plated at 1×10^5 cells/10 cm dish. […] After 40 hrs, the cells were trypsinized and the expression level of reporter gene was determined by FDG loading.
The reporter activity was measured by FACS analysis.

cancer cell lines = test: IC50 across several different cancer cell lines; format: cell-based; details: called predicted
[1] = cited from earlier work
cats = details: cited from earlier work
[2] = cited from earlier work; remark: listed apart in the source
cancer of the pancreas [3] = details: previously untreated patients; cited from earlier work
pancreatic cancer [4] = details: cited from earlier work
pancreatic lesions = details: cited from earlier work
pancreatic tumors = details: cited from earlier work
[5] = molecular target: farnesyl protein transferase (FPTase) (Homo sapiens, UniProt P49354+P49356); details: cited from earlier work
Sequence of farnesyl protein transferase (FPTase) (P49356 whole entry, one chain of several): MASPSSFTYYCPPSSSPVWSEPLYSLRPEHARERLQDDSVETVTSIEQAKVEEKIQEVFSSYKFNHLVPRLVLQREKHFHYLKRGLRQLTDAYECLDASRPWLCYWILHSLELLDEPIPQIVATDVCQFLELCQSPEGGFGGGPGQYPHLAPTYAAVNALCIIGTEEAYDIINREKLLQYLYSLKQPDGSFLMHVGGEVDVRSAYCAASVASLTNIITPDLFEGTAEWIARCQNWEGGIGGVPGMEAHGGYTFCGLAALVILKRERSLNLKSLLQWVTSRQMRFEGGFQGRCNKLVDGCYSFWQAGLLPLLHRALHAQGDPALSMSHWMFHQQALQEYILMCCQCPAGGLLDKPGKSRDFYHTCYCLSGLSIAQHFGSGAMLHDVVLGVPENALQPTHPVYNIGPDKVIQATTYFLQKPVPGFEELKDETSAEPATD

[6] = molecular target: geranylgeranyl protein transferase (GGPTase) (Homo sapiens, UniProt P49354+P53609); details: cited from earlier work
Sequence of geranylgeranyl protein transferase (GGPTase) (P53609 whole entry, one chain of several): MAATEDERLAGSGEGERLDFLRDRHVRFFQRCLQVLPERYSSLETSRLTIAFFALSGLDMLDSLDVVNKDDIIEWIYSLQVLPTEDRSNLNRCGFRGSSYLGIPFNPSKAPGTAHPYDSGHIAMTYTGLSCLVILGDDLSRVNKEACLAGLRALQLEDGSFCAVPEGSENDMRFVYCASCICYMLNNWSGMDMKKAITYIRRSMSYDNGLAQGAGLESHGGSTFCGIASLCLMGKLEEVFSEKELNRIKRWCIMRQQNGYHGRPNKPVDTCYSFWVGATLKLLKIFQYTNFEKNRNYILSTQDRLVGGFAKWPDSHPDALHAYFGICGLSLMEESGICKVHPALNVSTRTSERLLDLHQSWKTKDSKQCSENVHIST

[7] = system: C38 colon adenocarcinoma and PO3 pancreatic ductal adenocarcinoma; details: in vivo; cited from earlier work
pancreatic cancer [8] = details: 40 patients; cited from earlier work
[9] = system: advanced pancreatic cancer; details: in vivo; cited from earlier work
[10] = system: end-stage pancreatic cancer; details: cited from earlier work
[11] = system: rat mammary tumors induced by DMBA; details: relative to control group; cited from earlier work
[12] = system: pancreatic carcinoma cells carrying a K-Ras mutation; details: cited from earlier work
cancer of the pancreas [13] = details: previously treated with 5-FU; cited from earlier work
pancreatic cancer [14] = details: cited from earlier work; remark: listed apart in the source

C[C@@H]1OC(OC2C=C3CCC4C(CC[C@]5(C)[C@@H](c6ccc(=O)oc6)CC[C@]45O)[C@@]3(C)CC2)[C@H](O)[C@H](O)[C@H]1O (stereo partly drawn) [BNC-4, proscillaridin]
HIF-1α accumulation by L-mimosone (HIF-1α; 200 μM L-mimosone, 18 h): eliminated HIF-1α accumulation
HIF-1α accumulation by L-mimosone (HIF-1α; at the low concentration tested): did not appear to have an effect
secretion of the angiogenesis factor VEGF (VEGF): inhibits
reporter activity, Gemcitabine-induced stress response (A549 Sentinel Line): significantly shift the reporter activity to the left
IC50 (cancer cell lines): 2 to 8 ng/mL (≈ 0.00377 to 0.0151 µM)
serum levels at the maximum toxic dose (MTD) (mice): about 518 (±121) ng/ml
toxic serum concentration at day 1 (mice): about 518+121 ng/ml
steady state serum level at which anti-tumor activity was observed (xenograft nude mouse model): about 50 ng/mL
drug and metabolites excreted by the bile ([1]; in vivo): Greater than 99%
measurable unconjugated drug as share of administered quantity ([1]; oral administration): 7%
time of second, longer-lasting peak ([1]; oral): about 1 hour
time of third peak after dosing ([1]; oral): about 10 hours
toxicity, duodenal administration (cats): 1.05 mg/kg
tolerance in cancer patients ([2]; 0.5 mg/d i.v. for 4 d before surgery, 50 patients): well tolerated by all cancer patients
patients taken off treatment for negative side effects ([2]; 1067 patients, up to 3 years): 0.7%
reported cases in which therapy could be resumed ([2]; after a brief hiatus): > 95%
doses producing typical intoxication symptoms ([2]; healthy individuals): above 4 mg p.o./d

O=c1[nH]cc(F)c(=O)[nH]1 [5-FU, 5-fluorouracil]
patients alive at 1 year after starting therapy (cancer of the pancreas [3]): 1 in 50
response rate (pancreatic cancer [4]): less than 20%

CN(C)C(=N)N=C(N)N [Metformin]
hyperplastic and premalignant lesions (pancreatic lesions; 8.6 in high-fat group): 1.8 lesions per hamster
malignant lesions (pancreatic lesions; drinking water for life, 50% in high-fat group): none were found

CC(=O)O[C@H]1C(=O)[C@@]2(C)[C@H]([C@H](OC(=O)c3ccccc3)[C@]3(O)C[C@H](OC(=O)[C@H](O)[C@@H](NC(=O)c4ccccc4)c4ccccc4)C(C)=C1C3(C)C)[C@]1(OC(C)=O)CO[C@@H]1C[C@@H]2O [paclitaxel]
cell death (A549 Sentinel Line): increases
reporter activity (A549 Sentinel Line): increases

C=C(C)[C@@H]1CC=C(CO)CC1 [Perillyl alcohol]
tumors completely regressed (pancreatic tumors; hamster, in vivo): 16%
growth of pancreatic tumors (pancreatic tumors; versus controls): less than half that of controls
inhibition of Ras prenylation [5]: 17%
inhibition of RhoA prenylation [6]: 28%

CC(=O)O[C@@]12CO[C@@H]1C[C@H](O)[C@@]1(C)C(=O)[C@H](O)C3=C(C)[C@@H](OC(=O)[C@H](O)[C@@H](NC(=O)OC(C)(C)C)c4ccccc4)C[C@@](O)([C@@H](OC(=O)c4ccccc4)[C@H]21)C3(C)C [docetaxel, Docetaxel]
complete regressions [7]: 80%
median duration of response (pancreatic cancer [8]): 5.1 months
partial response (pancreatic cancer [8]): 15%
stable disease (pancreatic cancer [8]): 38%

O=C1c2c(O)ccc(O)c2C(=O)c2c(NCCNCCO)ccc(NCCNCCO)c21 [mitoxanthrone, mitoxantrone]
cell death (A549 Sentinel Line): increases
reporter activity (A549 Sentinel Line): increases

N.N.O=C([O-])C1(C(=O)[O-])CCC1.[Pt+2] [Carboplatin]
cell death (A549 Sentinel Line): increases
reporter activity (A549 Sentinel Line): increases

Cn1c(=O)c2c(ncn2C)n(C)c1=O [caffeine]
median duration of survival [9]: 5 months
patients with objective responses [9]: 5.5%

CC[C@@]1(O)C(=O)OCc2c1cc1n(c2=O)Cc2cc3c([N+](=O)[O-])cccc3nc2-1 [Rubitecan, 9-nitrocamptothecin]
nonresponders ([10]; 60 patients): 36.6%
patients who responded favorably ([10]; 60 patients): 31.7%
patients with stabilized disease ([10]; 60 patients): 31.7%
survival ([10]; nonresponders): 6.8 months
median survival ([10]; responders): 18.6 months
median survival ([10]; stabilized disease): 9.7 months

CC(C)Cc1ccc(C(C)C(=O)O)cc1 (stereo not drawn) [Ibuprofen]
reduction in incidence of breast tumors [11]: 40%
reduction in multiplicity of breast tumors [11]: 52%

C=C(C)[C@H]1CC=C(C)CC1 [Limonene]
growth reduction [12]: approximately 50%

COc1cc2ncnc(Nc3ccc(F)c(Cl)c3)c2cc1OCCCN1CCOCC1 [Iressa]
reporter activity (A549 Sentinel Line): reduction in reporter activity

Nc1ccn([C@@H]2O[C@H](CO)[C@@H](O)C2(F)F)c(=O)n1 [Gemcitabine]
reporter activity, Gemcitabine-induced stress response (A549 Sentinel Line): elevated reporter activity
patients alive at 1 year after starting therapy (cancer of the pancreas [3]): 1 in 5
survival of the typical patient (cancer of the pancreas [3]): about 6 months
patients alive at 1 year (cancer of the pancreas [13]): 1 in 25
patients with symptom improvement for at least 1 month (cancer of the pancreas [13]): 1 in 4
survival of the typical patient (cancer of the pancreas [13]): 4 months
patients with clinical benefit (pancreatic cancer [14]; gemcitabine alone): 20-30%
1-year survival rate (pancreatic cancer [14]; human, in vivo): 18%

C[C@@H]1O[C@@H](O[C@H]2C[C@@H](O)[C@]3(CO)[C@H]4[C@H](O)C[C@]5(C)[C@@H](C6=CC(=O)OC6)CC[C@]5(O)[C@@H]4CC[C@]3(O)C2)[C@H](O)[C@H](O)[C@H]1O [BNC-1, ouabain]
secretion of the angiogenesis factor VEGF (VEGF): inhibits
IC50 (cancer cell lines): 9 to 35 ng/mL (≈ 0.0154 to 0.0599 µM)
toxic serum concentration at day 1 (mice): about 50+21 ng/ml
therapeutic serum concentration required to achieve >60% TGI (steady state delivery in mice): about 20+15 ng/ml
toxicity, duodenal administration (cats): 5.3 mg/kg
